Test results from PubChem BioAssay AID1963963 (Molecular Pharmacology Branch, DTP, NCI, 2024).

Tested on: 958667-338-R-J2-PDC tumor spheroids viability
Assay: Anticancer human tumor 958667-338-R-J2-PDC patient-derived colon adenocarcinoma cell line growth inhibition [PI3K]
Settings: spheroids with HUVEC and MSC; for IC50: curve of first compound; for viability, T/C: stronger effect = lower value
In short: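 Multi-cell spheroids combine tumor cells with HUVEC and human MSCs, treated with targeted agents alone or with inavolisib, alpelisib, duvelisib or copanlisib. Concentrations fall in half-log steps from at or near clinical Cmax, or from 10 microM where Cmax is unknown; viability read-out.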

[1] = second compound 0.0316 µM, first compound 0.0316 µM
[2] = second compound 0.0316 µM, first compound 0.1 µM
[3] = second compound 0.0316 µM, first compound 0.316 µM
[4] = second compound 0.0316 µM, first compound 1 µM
[5] = second compound 0.0316 µM, first compound 3.16 µM
[6] = second compound 0.0316 µM, first compound 10 µM
[7] = second compound 0.1 µM, first compound 0.0316 µM
[8] = second compound 0.1 µM, first compound 0.1 µM
[9] = second compound 0.1 µM, first compound 0.316 µM
[10] = second compound 0.1 µM, first compound 1 µM
[11] = second compound 0.1 µM, first compound 3.16 µM
[12] = second compound 0.1 µM, first compound 10 µM
[13] = second compound 0.316 µM, first compound 0.0316 µM
[14] = second compound 0.316 µM, first compound 0.1 µM
[15] = second compound 0.316 µM, first compound 0.316 µM
[16] = second compound 0.316 µM, first compound 1 µM
[17] = second compound 0.316 µM, first compound 3.16 µM
[18] = second compound 0.316 µM, first compound 10 µM
[19] = second compound 1 µM, first compound 0.0316 µM
[20] = second compound 1 µM, first compound 0.1 µM
[21] = second compound 1 µM, first compound 0.316 µM
[22] = second compound 1 µM, first compound 1 µM
[23] = second compound 1 µM, first compound 3.16 µM
[24] = second compound 1 µM, first compound 10 µM
[25] = second compound 3.16 µM, first compound 0.0316 µM
[26] = second compound 3.16 µM, first compound 0.1 µM
[27] = second compound 3.16 µM, first compound 0.316 µM
[28] = second compound 3.16 µM, first compound 1 µM
[29] = second compound 3.16 µM, first compound 3.16 µM
[30] = second compound 3.16 µM, first compound 10 µM
[31] = second compound 10 µM, first compound 0.0316 µM
[32] = second compound 10 µM, first compound 0.1 µM
[33] = second compound 10 µM, first compound 0.316 µM
[34] = second compound 10 µM, first compound 1 µM
[35] = second compound 10 µM, first compound 3.16 µM
[36] = second compound 10 µM, first compound 10 µM
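Note: spheroids exposed to compounds for seven days before readout.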

**Q.** Which results are given for `CCCS(=O)(=O)Nc1ccc(F)c(C(=O)c2c[nH]c3ncc(-c4ccc(Cl)cc4)cc23)c1F` + Cc1nc(NC(=O)N2CCCC2C(N)=O)sc1-c1ccnc(C(C)(C)C(F)(F)F)c1?
**A.** IC50 (second compound 0.0316 µM): 5.75 µM; IC50 (second compound 0.1 µM): 5.49 µM; IC50 (second compound 0.316 µM): 5.17 µM; IC50 (second compound 1 µM): 6.58 µM; IC50 (second compound 3.16 µM): 4.64 µM; IC50 (second compound 10 µM): 4.35 µM; viability, T/C [1]: 106%; viability, T/C [2]: 87.6%; viability, T/C [3]: 89.8%; viability, T/C [4]: 86.1%; viability, T/C [5]: 111%; viability, T/C [6]: 7.09%; viability, T/C [7]: 96.3%; viability, T/C [8]: 91.9%; viability, T/C [9]: 82.2%; viability, T/C [10]: 77.2%; viability, T/C [11]: 90.2%; viability, T/C [12]: 9.01%; viability, T/C [13]: 90.7%; viability, T/C [14]: 78.6%; viability, T/C [15]: 70.8%; viability, T/C [16]: 77.7%; viability, T/C [17]: 85.5%; viability, T/C [18]: 8.6%; viability, T/C [19]: 79.5%; viability, T/C [20]: 84.5%; viability, T/C [21]: 86%; viability, T/C [22]: 70.8%; viability, T/C [23]: 80.5%; viability, T/C [24]: 32.7%; viability, T/C [25]: 57%; viability, T/C [26]: 66.4%; viability, T/C [27]: 75.9%; viability, T/C [28]: 49.3%; viability, T/C [29]: 74.3%; viability, T/C [30]: 20.7%; viability, T/C [31]: 58.1%; viability, T/C [32]: 66.9%; viability, T/C [33]: 60.8%; viability, T/C [34]: 67.9%; viability, T/C [35]: 74.1%; viability, T/C [36]: 9.34%

**Q.** With `CC(Cn1ccc(-c2ccc(C#N)c(Cl)c2)n1)NC(=O)c1cc(C(C)O)[nH]n1` (stereo unspecified) + CC(Nc1ncnc2nc[nH]c12)c1cc2cccc(Cl)c2c(=O)n1-c1ccccc1 as the molecule, how does the IC50 (second compound 0.0316 µM) read?
**A.** > 10 µM

**Q.** And the IC50 (second compound 0.1 µM)?
**A.** > 10 µM

**Q.** What about the IC50 (second compound 0.316 µM) of the same molecule?
**A.** > 10 µM

**Q.** What about the IC50 (second compound 1 µM) of the same molecule?
**A.** > 10 µM

**Q.** What about the IC50 (second compound 3.16 µM) of the same molecule?
**A.** > 10 µM

**Q.** And the IC50 (second compound 10 µM)?
**A.** > 10 µM

**Q.** What about the viability, T/C [1] of the same molecule?
**A.** 85.4%

**Q.** What about the viability, T/C [2] of the same molecule?
**A.** 105%

**Q.** And the viability, T/C [3]?
**A.** 85.5%

**Q.** And the viability, T/C [4]?
**A.** 106%

**Q.** And the viability, T/C [5]?
**A.** 114%

**Q.** What about the viability, T/C [6] of the same molecule?
**A.** 86.5%

**Q.** What about the viability, T/C [7] of the same molecule?
**A.** 100%

**Q.** What about the viability, T/C [8] of the same molecule?
**A.** 97.5%

**Q.** What about the viability, T/C [9] of the same molecule?
**A.** 99.9%

**Q.** What about the viability, T/C [10] of the same molecule?
**A.** 99.2%

**Q.** And the viability, T/C [11]?
**A.** 99.4%

**Q.** What about the viability, T/C [12] of the same molecule?
**A.** 79.1%

**Q.** And the viability, T/C [13]?
**A.** 90.7%

**Q.** And the viability, T/C [14]?
**A.** 109%

**Q.** And the viability, T/C [15]?
**A.** 121%

**Q.** What about the viability, T/C [16] of the same molecule?
**A.** 108%

**Q.** And the viability, T/C [17]?
**A.** 85.8%

**Q.** What about the viability, T/C [18] of the same molecule?
**A.** 109%

**Q.** And the viability, T/C [19]?
**A.** 119%

**Q.** And the viability, T/C [20]?
**A.** 115%

**Q.** And the viability, T/C [21]?
**A.** 99.8%

**Q.** What about the viability, T/C [22] of the same molecule?
**A.** 112%

**Q.** And the viability, T/C [23]?
**A.** 101%

**Q.** And the viability, T/C [24]?
**A.** 73.7%

**Q.** What about the viability, T/C [25] of the same molecule?
**A.** 107%

**Q.** And the viability, T/C [26]?
**A.** 105%

**Q.** What about the viability, T/C [27] of the same molecule?
**A.** 121%

**Q.** What about the viability, T/C [28] of the same molecule?
**A.** 82.8%

**Q.** And the viability, T/C [29]?
**A.** 101%

**Q.** And the viability, T/C [30]?
**A.** 98.5%

**Q.** What about the viability, T/C [31] of the same molecule?
**A.** 77.2%

**Q.** What about the viability, T/C [32] of the same molecule?
**A.** 98.7%

**Q.** What about the viability, T/C [33] of the same molecule?
**A.** 86.7%

**Q.** And the viability, T/C [34]?
**A.** 84.1%

**Q.** And the viability, T/C [35]?
**A.** 91.9%

**Q.** And the viability, T/C [36]?
**A.** 97.7%

**Q.** For `C=CC(=O)N1CCN(c2nc(=O)n(-c3c(C)ccnc3C(C)C)c3nc(-c4c(O)cccc4F)c(F)cc23)C(C)C1` (stereo unspecified) + Cc1nc(NC(=O)N2CCCC2C(N)=O)sc1-c1ccnc(C(C)(C)C(F)(F)F)c1, which IC50 (second compound 0.0316 µM) is on record?
**A.** > 10 µM

**Q.** What about the IC50 (second compound 0.1 µM) of the same molecule?
**A.** > 10 µM

**Q.** And the IC50 (second compound 0.316 µM)?
**A.** > 10 µM

**Q.** And the IC50 (second compound 1 µM)?
**A.** > 10 µM

**Q.** And the IC50 (second compound 3.16 µM)?
**A.** > 10 µM

**Q.** What about the IC50 (second compound 10 µM) of the same molecule?
**A.** > 10 µM

**Q.** What about the viability, T/C [1] of the same molecule?
**A.** 94.5%

**Q.** And the viability, T/C [2]?
**A.** 100%

**Q.** And the viability, T/C [3]?
**A.** 96.8%

**Q.** And the viability, T/C [4]?
**A.** 114%

**Q.** What about the viability, T/C [5] of the same molecule?
**A.** 126%

**Q.** What about the viability, T/C [6] of the same molecule?
**A.** 112%

**Q.** What about the viability, T/C [7] of the same molecule?
**A.** 94.8%

**Q.** And the viability, T/C [8]?
**A.** 111%

**Q.** What about the viability, T/C [9] of the same molecule?
**A.** 96.6%

**Q.** And the viability, T/C [10]?
**A.** 110%

**Q.** What about the viability, T/C [11] of the same molecule?
**A.** 129%

**Q.** And the viability, T/C [12]?
**A.** 107%

**Q.** What about the viability, T/C [13] of the same molecule?
**A.** 97.9%

**Q.** And the viability, T/C [14]?
**A.** 86.9%

**Q.** And the viability, T/C [15]?
**A.** 94.7%

**Q.** What about the viability, T/C [16] of the same molecule?
**A.** 113%

**Q.** And the viability, T/C [17]?
**A.** 94.7%

**Q.** What about the viability, T/C [18] of the same molecule?
**A.** 84.7%

**Q.** And the viability, T/C [19]?
**A.** 94%

**Q.** And the viability, T/C [20]?
**A.** 76.7%

**Q.** What about the viability, T/C [21] of the same molecule?
**A.** 107%

**Q.** What about the viability, T/C [22] of the same molecule?
**A.** 83%

**Q.** What about the viability, T/C [23] of the same molecule?
**A.** 88.5%

**Q.** What about the viability, T/C [24] of the same molecule?
**A.** 85.2%

**Q.** And the viability, T/C [25]?
**A.** 80.4%

**Q.** And the viability, T/C [26]?
**A.** 73.5%

**Q.** What about the viability, T/C [27] of the same molecule?
**A.** 68.6%

**Q.** And the viability, T/C [28]?
**A.** 73.3%

**Q.** What about the viability, T/C [29] of the same molecule?
**A.** 93.5%

**Q.** And the viability, T/C [30]?
**A.** 82.2%

**Q.** What about the viability, T/C [31] of the same molecule?
**A.** 69.1%

**Q.** What about the viability, T/C [32] of the same molecule?
**A.** 60.5%

**Q.** And the viability, T/C [33]?
**A.** 48.8%

**Q.** What about the viability, T/C [34] of the same molecule?
**A.** 63.5%

**Q.** What about the viability, T/C [35] of the same molecule?
**A.** 65.8%

**Q.** What about the viability, T/C [36] of the same molecule?
**A.** 68.9%
